According to US20190315806A1, “POLYMYXIN DERIVATIVE, PREPARATION METHOD AND APPLICATION THEREOF” (priority 2016, published 2019):
In brackets after ≈: the same amount, converted by molar mass. Where a SMILES comes first, the peptide text is derived from it. Bridges are numbered along the chain shown (N, C = ends). [ ]: non-standard residue; d: D form. The star is where a group is joined. Heptanoyl(6-Me) = CC(C)CCCCC(=O)*; Octanoyl(7-Me) = CC(C)CCCCCC(=O)*; X2 = CC[C@H](C)CCCCC(=O)*; Heptanoyl = CCCCCCC(=O)*; Dab = NCC[C@H](N)C(=O)O; Nva = CCC[C@H](N)C(=O)O

Columns and labels:
Format in all cases: cell-based
[1] = tested on: Klebsiella pneumoniae ATCC BAA-2146 (NDM-1); experiment: Antibacterial activity, MIC by dish double dilution method; settings: ATCC BAA-2146
Outline: (§1)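 MIC by CLSI agar two-fold dilution: compounds at final 0.03–128 μg/mL in agar, strains inoculated at 10^4 CFU/dot by multipoint inoculator. Incubation 18–24 h at 35 °C; MIC is the lowest concentration giving no colony growth.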

[2] = tested on: Acinetobacter baumannii ATCC 19606; settings: ATCC 19606
Outline: as §1

[3] = tested on: Pseudomonas aeruginosa ATCC 27853; settings: ATCC 27853
Outline: as §1

[4] = tested on: Escherichia coli ATCC 25922; settings: ATCC 25922
Outline: as §1

[5] = tested on: Staphylococcus epidermidis ATCC 12228; settings: ATCC 12228
Outline: as §1

[6] = Nephrotoxicity test, renal cytotoxicity by MTT method; settings: African green monkey
Method: African green monkey kidney cells (Vero cells) were cultured in MEM medium (Hyclone), 10% fetal calf serum (Invitrogen) was added before use, cultured at 37° C. under 5% CO2.
Experiment was carried out using MTT method. After digestion, cells in logarithmic growth phase were counted, then the cells were inoculated in a 96-well culture plate. After incubation for 24 h to be adherent, cells were treated with a concentration gradient of a compound of the invention (e.g., a compound prepared in the Embodiments) and the controls. After 72 h, the culture solution was removed, 100 uL of MTT reagent at a concentration of 0.5 mg/ml was added, the medium was removed after incubating for 3 hours in a 37° C. incubator. Add 150 μL DMSO solvent to each well, mix for 3 min, after which the absorbance at 570 nm (A) was measured with a microplate reader.
Cell viability %=(Adosed cell−Abackground)/(Acontrol cell−Abackground)×100%. The average value of 3 parallel wells was taken for each detection point, and the inhibition curve was drawn to calculate the IC50 value.
The African green monkey kidney cells (Vero cells) used in the experiment were from the Cell Resource Center of the Institute of Basic Medicine, Chinese Academy of Medical Sciences.

Structure (SMILES) | MIC K. pneumoniae ATCC BAA-2146 (NDM-1) [1] [mg/L] | MIC A. baumannii ATCC 19606 [2] [mg/L] | MIC P. aeruginosa ATCC 27853 [3] [mg/L] | MIC E. coli ATCC 25922 [4] [mg/L] | MIC S. epidermidis ATCC 12228 [5] [mg/L] | IC50 at 72 h [6] [mg/L]
CC[C@H](C)CCCCC(=O)N[C@@H](CCN)C(=O)N[C@H](C(=O)N[C@@H](CCN)C(=O)N[C@H]1CCNC(=O)[C@H]([C@@H](C)O)NC(=O)[C@H](CCN)NC(=O)[C@H](CCN)NC(=O)[C@H]([C@@H](C)CC)NC(=O)[C@@H](CC(C)C)NC(=O)[C@H](CCN)NC1=O)[C@@H](C)O [Compound 71, (S)-6-methyloctanoyl-Dab-Thr-Dab-ring(4-10)[Dab-Dab-D-Leu-Ile-Dab-Dab-Thr]] (X2-[Dab]T[Dab][Dab][Dab][dL]I[Dab][Dab]T; lactam 4-C) | 1 (≈ 0.855 µM) | 1 (≈ 0.855 µM) | 2 (≈ 1.71 µM) | 1 (≈ 0.855 µM) | 128 (≈ 109 µM) | 176 ± 14.7 (≈ 151 µM)
CC[C@H](C)CCCCC(=O)N[C@@H](CCN)C(=O)N[C@H](C(=O)N[C@@H](CCN)C(=O)N[C@H]1CCNC(=O)[C@H]([C@@H](C)O)NC(=O)[C@H](CCN)NC(=O)[C@H](CCN)NC(=O)[C@H](C(C)C)NC(=O)[C@@H](CC(C)C)NC(=O)[C@H](CCN)NC1=O)[C@@H](C)O [Compound 72, (S)-6-methyloctanoyl-Dab-Thr-Dab-ring(4-10)[Dab-Dab-D-Leu-Val-Dab-Dab-Thr]] (X2-[Dab]T[Dab][Dab][Dab][dL]V[Dab][Dab]T; lactam 4-C) | 0.5 (≈ 0.433 µM) | 0.5 (≈ 0.433 µM) | 2 (≈ 1.73 µM) | 0.5 (≈ 0.433 µM) | 128 (≈ 111 µM) | 131 ± 8.69 (≈ 113 µM)
CCC[C@@H]1NC(=O)[C@@H](CC(C)C)NC(=O)[C@H](CCN)NC(=O)[C@@H](NC(=O)[C@H](CCN)NC(=O)[C@@H](NC(=O)[C@H](CCN)NC(=O)CCCC[C@@H](C)CC)[C@@H](C)O)CCNC(=O)[C@H]([C@@H](C)O)NC(=O)[C@H](CCN)NC(=O)[C@H](CCN)NC1=O [Compound 73, (S)-6-methyloctanoyl-Dab-Thr-Dab-ring(4-10)[Dab-Dab-D-Leu-Nva-Dab-Dab-Thr]] (X2-[Dab]T[Dab][Dab][Dab][dL][Nva][Dab][Dab]T; lactam 4-C) | 1 (≈ 0.865 µM) | 1 (≈ 0.865 µM) | 1 (≈ 0.865 µM) | 1 (≈ 0.865 µM) | 128 (≈ 111 µM) | 108 ± 9.16 (≈ 93.9 µM)
CC[C@H](C)[C@@H]1NC(=O)[C@@H](CC(C)C)NC(=O)[C@H](CCN)NC(=O)[C@@H](NC(=O)[C@H](CCN)NC(=O)[C@@H](NC(=O)[C@H](CCN)NC(=O)CCCCC(C)C)[C@@H](C)O)CCNC(=O)[C@H]([C@@H](C)O)NC(=O)[C@H](CCN)NC(=O)[C@H](CCN)NC1=O [Compound 75, 6-methylheptanoyl-Dab-Thr-Dab-ring(4-10)[Dab-Dab-D-Leu-Ile-Dab-Dab-Thr]] ({Heptanoyl(6-Me)}-[Dab]T[Dab][Dab][Dab][dL]I[Dab][Dab]T; lactam 4-C) | 1 (≈ 0.865 µM) | 1 (≈ 0.865 µM) | 2 (≈ 1.73 µM) | 1 (≈ 0.865 µM) | 128 (≈ 111 µM) | 199 ± 13.1 (≈ 172 µM)
CC(C)CCCCC(=O)N[C@@H](CCN)C(=O)N[C@H](C(=O)N[C@@H](CCN)C(=O)N[C@H]1CCNC(=O)[C@H]([C@@H](C)O)NC(=O)[C@H](CCN)NC(=O)[C@H](CCN)NC(=O)[C@H](C(C)C)NC(=O)[C@@H](CC(C)C)NC(=O)[C@H](CCN)NC1=O)[C@@H](C)O [Compound 76, 6-methylheptanoyl-Dab-Thr-Dab-ring(4-10)[Dab-Dab-D-Leu-Val-Dab-Dab-Thr]] ({Heptanoyl(6-Me)}-[Dab]T[Dab][Dab][Dab][dL]V[Dab][Dab]T; lactam 4-C) | 0.5 (≈ 0.438 µM) | 1 (≈ 0.876 µM) | 2 (≈ 1.75 µM) | 0.5 (≈ 0.438 µM) | >128 | 225 ± 17 (≈ 197 µM)
CCC[C@@H]1NC(=O)[C@@H](CC(C)C)NC(=O)[C@H](CCN)NC(=O)[C@@H](NC(=O)[C@H](CCN)NC(=O)[C@@H](NC(=O)[C@H](CCN)NC(=O)CCCCC(C)C)[C@@H](C)O)CCNC(=O)[C@H]([C@@H](C)O)NC(=O)[C@H](CCN)NC(=O)[C@H](CCN)NC1=O [Compound 77, 6-methylheptanoyl-Dab-Thr-Dab-ring(4-10)[Dab-Dab-D-Leu-Nva-Dab-Dab-Thr]] ({Heptanoyl(6-Me)}-[Dab]T[Dab][Dab][Dab][dL][Nva][Dab][Dab]T; lactam 4-C) | 0.5 (≈ 0.438 µM) | 0.5 (≈ 0.438 µM) | 1 (≈ 0.876 µM) | 0.5 (≈ 0.438 µM) | >128 | 168 ± 12.5 (≈ 148 µM)
CCCCCCC(=O)N[C@@H](CCN)C(=O)N[C@H](C(=O)N[C@@H](CCN)C(=O)N[C@H]1CCNC(=O)[C@H]([C@@H](C)O)NC(=O)[C@H](CCN)NC(=O)[C@H](CCN)NC(=O)[C@H](CC(C)C)NC(=O)[C@@H](CC(C)C)NC(=O)[C@H](CCN)NC1=O)[C@@H](C)O [Compound 82, heptanoyl-Dab-Thr-Dab-ring(4-10)[Dab-Dab-D-Leu-Leu-Dab-Dab-Thr]] (Heptanoyl-[Dab]T[Dab][Dab][Dab][dL]L[Dab][Dab]T; lactam 4-C) | 0.5 (≈ 0.438 µM) | 2 (≈ 1.75 µM) | 1 (≈ 0.876 µM) | 1 (≈ 0.876 µM) | >128 | 216 ± 16.1 (≈ 189 µM)
CC(C)CCCCCC(=O)N[C@@H](CCN)C(=O)N[C@H](C(=O)N[C@@H](CCN)C(=O)N[C@H]1CCNC(=O)[C@H]([C@@H](C)O)NC(=O)[C@H](CCN)NC(=O)[C@H](CCN)NC(=O)[C@H](CC(C)C)NC(=O)[C@@H](CC(C)C)NC(=O)[C@H](CCN)NC1=O)[C@@H](C)O [Compound 86, 7-methyloctanoyl-Dab-Thr-Dab-ring(4-10)[Dab-Dab-D-Leu-Leu-Dab-Dab-Thr]] ({Octanoyl(7-Me)}-[Dab]T[Dab][Dab][Dab][dL]L[Dab][Dab]T; lactam 4-C) | 1 (≈ 0.855 µM) | 1 (≈ 0.855 µM) | 2 (≈ 1.71 µM) | 1 (≈ 0.855 µM) | 64 (≈ 54.7 µM) | 87 ± 6.98 (≈ 74.4 µM)
CC(C)CCCCC(=O)N[C@@H](CCN)C(=O)N[C@H](C(=O)N[C@@H](CCN)C(=O)N[C@H]1CCNC(=O)[C@H]([C@@H](C)O)NC(=O)[C@H](CCN)NC(=O)[C@H](CCN)NC(=O)[C@H]([C@@H](C)O)NC(=O)[C@@H](CC(C)C)NC(=O)[C@H](CCN)NC1=O)[C@@H](C)O [Compound 103, 6-methylheptanoyl-Dab-Thr-Dab-ring(4-10)[Dab-Dab-D-Leu-Thr-Dab-Dab-Thr]] ({Heptanoyl(6-Me)}-[Dab]T[Dab][Dab][Dab][dL]T[Dab][Dab]T; lactam 4-C) | 0.5 (≈ 0.437 µM) | 1 (≈ 0.875 µM) | 0.5 (≈ 0.437 µM) | 0.5 (≈ 0.437 µM) | >128 | 276 ± 17.7 (≈ 241 µM)
CC[C@H](C)CCCCC(=O)N[C@@H](CCN)C(=O)N[C@H](C(=O)N[C@H](CO)C(=O)N[C@H]1CCNC(=O)[C@H]([C@@H](C)O)NC(=O)[C@H](CCN)NC(=O)[C@H](CCN)NC(=O)[C@H]([C@@H](C)O)NC(=O)[C@@H](Cc2ccccc2)NC(=O)[C@H](CCN)NC1=O)[C@@H](C)O [Compound 115, (S)-6-methyloctanoyl-Dab-Thr-D-Ser-ring(4-10)[Dab-Dab-D-Phe-Thr-Dab-Dab-Thr]] (X2-[Dab]T[dS][Dab][Dab][dF]T[Dab][Dab]T; lactam 4-C) | 0.5 (≈ 0.424 µM) | 0.12 (≈ 0.102 µM) | 2 (≈ 1.7 µM) | 0.25 (≈ 0.212 µM) | >128 | 160 ± 23.4 (≈ 136 µM)
